Legend:
rats [1] = assay: Study 5: 1H/19F NMR correlation study of urine from rats dosed with 3-fluoroaniline; format: in vivo, rat; settings: 50 mg/kg, negative covariance with 19F δ-128.4 resonance
Description: A number of rats were dosed with 3-fluoroaniline (3-FA) at 50 mg/kg. Urine samples were collected over dry ice (i) pre-dose, (ii) after 0-24 hours, and (iii) after 24-48 hours. ^1H NMR and ^1H-decoupled ^19F NMR spectra were collected. The collection of ^1H NMR spectra was treated as a first data set (i.e., a matrix with one row for each ^1H NMR spectrum, and one column for each ^1H NMR chemical shift variable, n x p) and the collection of ^19F-NMR spectra was treated as a second data set (i.e., a matrix with one row for each ^19F NMR spectrum, and one column for each ^19F NMR chemical shift variable, n×q). The correlation matrix and the covariance matrix (each p×q or q×p) were calculated.
This resonance was selected for the correlation study.
As mentioned above, the correlation matrix and the covariance matrix (each p×q or q×p) were calculated. The correlation between the selected variable (^19F δ-128.4) of the first data set and all of the variables of the second data set (i.e., the range of ^1H δ) is given in the column/row of the correlation matrix associated with this variable (i.e., the column/row for ^19F δ-128.4). The covariance between this variable (^19F δ-128.4) and all of the variables of the second data set (i.e., the range of ^1H δ) is given in the column/row of the covariance matrix associated with this variable (i.e., the column/row for ^19F δ-128.4). […]

rats [2] = settings: hydrazine poisoning; stated as well known; cited from earlier work
rats [3] = assay: Study 7: 1H NMR / UPLC-MS correlation study of urine from rats dosed with hydrazine; format: in vivo, rat; settings: hydrazine poisoning
Description: A number of rats were dosed with hydrazine. Urine samples were collected. ^1H NMR and mass spectra were recorded for each sample. (Note that the mass spectra were recorded using an UPLC-MS experiment, in which individual mass spectra are recorded as function of elution time, here over a period of six minutes with a water-acetonitrile gradient; however, for the present study, these spectra were “summed” in order to present a single mass spectrum for each sample. This gives, in effect, “virtual direct injection mass spectra.” This is a known approach for improving MS detection in complex mixtures.)
The collection of ^1H NMR spectra was treated as a first data set (i.e., a matrix with one row for each ^1H NMR spectrum, and one column for each ^1H NMR chemical shift variable, n×p) and the collection of mass spectra was treated as a second data set (i.e., a matrix with one row for each mass spectrum, and one column for each m/z variable, n×q). The correlation matrix and the covariance matrix (each p×q or q×p) were calculated. A correlation map illustrating a part of the correlation matrix, as a function of both ^1H chemical shift (from about δ 2 to about δ 4.5) and m/z (from about 100 to about 350), is shown in FIG. 21. The correlation is indicated by colour (blue is negative correlation and red is positive correlation). A “summed” ^1H NMR spectrum is shown alongside the ^1H δ axis for illustration. Similarly, a “summed” mass spectrum is shown alongside the m/z axis for illustration.
A correlation map illustrating another (very small) part of the correlation matrix is shown in FIG. 22, specifically for ^1H chemical shift from about δ 8.8 to about δ 9.3 and m/z from about 80 to about 200. Again, a “summed” ^1H NMR spectrum is shown alongside the ^1H δ axis for illustration. Similarly, a “summed” mass spectrum is shown alongside the m/z axis for illustration. […] As expected, the mass spectrum peak at m/z 138 (for NMNA) is highly correlated with the ^1H NMR peaks at about δ 9.12 about δ 8.84 (also for NMNA). […]

| SMILES | effect on endogenous hippurate level in urine (rats [1]) | change in N-methylnicotinamide (NMND) (rats [2]) | change in N-methylnicotinic acid (NMNA) (rats [2]) | change in urinary creatine (rats [3]; m/z 90, 116) | change in urinary 2-aminoadipate (rats [3]; m/z 98, 116) | change in urinary hippurate (rats [3]; m/z 105, 180) |
| --- | --- | --- | --- | --- | --- | --- |
| Nc1cccc(F)c1 [3-fluoroaniline] | reduces the amount of hippurate | – | – | – | – | – |
| NN [hydrazine] | – | increase | decrease | increased | increased | decreased |
